Test results reported in US20090036475A1, “Pyrazolyl-Pyrimidines as Potassium Channel Modulating Agents and Their Medical Use” (NEUROSEARCH A/S, priority 2006, published 2009).

What was measured:
[1] = target: T1, small-conductance Ca2+-activated K+ channel, subtype 3 (SK3) (Homo sapiens, UniProt Q9UGI6); test: Whole-cell patch-clamp recording of SK3 current in HEK293 cells; type: cell-based; conditions: hSK3 stably expressed in HEK293 cells, baseline current at −20 mV, free Ca2+ 300 nM, room temperature
T1 construct: expressed in transfected cells; host or cells: HEK293
Experimental: The ionic current through small-conductance Ca^2+-activated K^+ channels (SK channels, subtype 3) is recorded using the whole-cell configuration of the patch-clamp technique.
The small-conductance Ca^2+-activated K^+ channel, subtype 3 (SK3) was cloned from human skeletal muscle and stably expressed in HEK293 cells.
Human SK3 (hSK3) was sub-cloned into the expression vector pNS3n, a customized vector derived from pcDNA3 (InVitrogen) to give the plasmid construct pNS3_hSK3. HEK293 tissue culture cells were grown in DMEM (Dulbecco's Modified Eagle Medium) supplemented with 10% FCS (foetal calf serum) at 37° C. in 5% CO2. […]
Experiments are carried out on one of several patch-clamp set-ups. […] Data are stored directly on the hard-disk and analysed by IGOR software (Wavemetrics, Lake Oswega, Oreg., USA).
The whole-cell configuration of the patch-clamp technique is applied. […] Cell capacitance is electronically compensated and the resistance between the pipette and the cell interior (the series resistance, Rs) is measured and compensated for. […]
The intracellular (pipette) solution has the following composition (in mM): 105 KCl, 45 KOH, 10 EGTA, 1.21 MgCl2, 7.63 CaCl2, and 10 HEPES (pH=7.2 with HCl). The calculated free concentration of Ca^2+ in this solution is 300 nM and that of Mg^2+ is 1 mM. […]
Active compounds are quantified by calculating the change in baseline current at −20 mV. […]

**Q.** Which melting point does the source give for `Cc1cc(Nc2cccc(C(F)(F)F)c2)nc(-n2nc(C)cc2C)n1` [Compound B6, [2-(3,5-Dimethyl-pyrazol-1-yl)-6-methyl-pyrimidin-4-yl]-(3-trifluoromethyl-phenyl)-amine] here?
**A.** Its melting point is 130.5 to 133.6 °C.

**Q.** For `Cc1cc(Nc2ccc(Cl)c(Cl)c2)nc(-n2nc(C)cc2C)n1` [Compound B4, (3,4-Dichloro-phenyl)-[2-(3,5-dimethyl-pyrazol-1-yl)-6-methyl-pyrimidin-4-yl]-amine], which melting point is on record?
**A.** Its melting point is 135.3 to 137.8 °C.

**Q.** For `Cc1ccc(Nc2cc(C)nc(-n3nc(C)cc3C)n2)cc1` [Compound B1, [2-(3,5-Dimethyl-pyrazol-1-yl)-6-methyl-pyrimidin-4-yl]-p-tolyl-amine], which melting point is on record?
**A.** Its melting point is 135.1 to 137.5 °C.

**Q.** With `Cc1cc(NCc2ccccc2)nc(-n2nc(C)cc2C)n1` [Compound A1, Benzyl-[2-(3,5-dimethyl-pyrazol-1-yl)-6-methyl-pyrimidin-4-yl]-amine] as the compound, how does the melting point read?
**A.** The melting point was 135.9 to 137.3 °C.

**Q.** With `Cc1cc(C)n(-c2nccc(NC3CCCCC3)n2)n1` [Compound A5, Cyclohexyl-[2-(3,5-dimethyl-pyrazol-1-yl)-pyrimidin-4-yl]-amine] as the compound, how does the melting point read?
**A.** The melting point was 144.5 to 146.7 °C.

**Q.** For `Cc1cc(C)n(-c2ncc(C)c(Nc3ccc(Cl)cc3)n2)n1` [Compound B12, (4-Chloro-phenyl)-[2-(3,5-dimethyl-pyrazol-1-yl)-5-methyl-pyrimidin-4-yl]-amine], which melting point is on record?
**A.** Its melting point is 179.2 to 182.3 °C.

**Q.** Which melting point does the source give for `Cc1ccc(Nc2ccnc(-n3nc(C)cc3C)n2)cc1` [Compound B11, [2-(3,5-Dimethyl-pyrazol-1-yl)-pyrimidin-4-yl]-p-tolyl-amine] here?
**A.** The melting point was 52 to 55.6 °C.

**Q.** With `Cc1cc(NC2CCCCC2)nc(-n2nc(C)cc2C)n1` [Compound A2, Cyclohexyl-[2-(3,5-dimethyl-pyrazol-1-yl)-6-methyl-pyrimidin-4-yl]-amine] as the compound, how does the “SC100 (Stimulating Concentration required for increasing the baseline current by 100%)” value [1] read?
**A.** Its value is 0.1 µM.

**Q.** For `Cc1cc(C)n(-c2ncc(Br)c(Nc3ccc(Cl)cc3)n2)n1` [Compound B10, [5-Bromo-2-(3,5-dimethyl-pyrazol-1-yl)-pyrimidin-4-yl]-(4-chloro-phenyl)-amine], which melting point is on record?
**A.** The melting point was 144.5 to 154 °C.

**Q.** For `Cc1cc(Nc2ccccc2)nc(-n2nc(C)cc2C)n1` [Compound B2, [2-(3,5-Dimethyl-pyrazol-1-yl)-6-methyl-pyrimidin-4-yl]-phenyl-amine], which melting point is on record?
**A.** Its melting point is 134.5 to 138.8 °C.

**Q.** With `Cc1cc(C)n(-c2nccc(Nc3ccc(Cl)cc3)n2)n1` [Compound B9, (4-Chloro-phenyl)-[2-(3,5-dimethyl-pyrazol-1-yl)-pyrimidin-4-yl]-amine] as the compound, how does the melting point read?
**A.** The melting point was 135.5 to 140 °C.

**Q.** Which melting point does the source give for `Cc1cc(C)n(-c2ncc(Cl)c(NC3CCCCC3)n2)n1` [Compound A6, [5-Chloro-2-(3,5-dimethyl-pyrazol-1-yl)-pyrimidin-4-yl]-cyclohexyl-amine] here?
**A.** The melting point was 90 to 99 °C.

**Q.** For `Cc1cc(Nc2ccc(Cl)cc2)nc(-n2nc(C)cc2C)n1` [Compound B3, (4-Chloro-phenyl)-[2-(3,5-dimethyl-pyrazol-1-yl)-6-methyl-pyrimidin-4-yl]-amine], which melting point is on record?
**A.** Its melting point is 181 to 183.2 °C.

**Q.** Which melting point does the source give for `Cc1cc(C)n(-c2nccc(Nc3cccc(C(F)(F)F)c3)n2)n1` [Compound B8, [2-(3,5-Dimethyl-pyrazol-1-yl)-pyrimidin-4-yl]-(3-trifluoromethyl-phenyl)-amine] here?
**A.** Its melting point is 98.5 to 99.6 °C.
